Holding throughout (format): cell-based, human
The test system of one test is HME and HME/IRIS cells. Nature of the test: Survival of HME versus HME/IRIS cells with pathway inhibitors. The following applies: 10 μM inhibitor, 24 hours. The protocol:
Similar numbers of HME or HME/IRIS were grown in the presence of 10 μM of ERK (PD98059), JNK (SP600125), p38 (SB203580), EGFR (Erlotinib), ErbB2 (CP-724714) or PI3′K/AKT (LY294002) inhibitors for 24 hours. In keeping with published data (Nakuci et al., 2006; Hao and ElShamy, 2007; Chock et al., 2010a), BRCA1-IRIS overexpression promoted cells proliferation (FIG. 73). Thus, data are represented as percentage of treatment compared to no treatment in each cell line separately. […] Thus, as expected, cells overexpressing BRCA1-IRIS exerts some of their functions through EGFR/ErbB2 that feeds into PI3′K/AKT/mTOR and MAPK signaling pathways (FIG. 74).
Cell viability measurement. Cell viability under different experimental conditions was determined using the MTS assay. Briefly, cells (2.5×10^4 cells per well) were seeded in 96-well plates and incubated overnight at 37° C. in 10% humidified CO2 atmosphere. The next day they were incubated with varying concentration of peptide, or inhibitors for 24 hours at 37° C. Cell viability was determined using cell Titer 96® Aqueous (Promega, Madison, Wis., USA) following manufacturer's instructions. Cell viability (%) was expressed as a ratio of treated cells to control cells×100. Growth inhibition was also determined by manually counting cells in five different microscopic fields. Change in cell numbers (fold) was expressed as a ratio of the means of these recording of treated cells compared to control cells×100. Each experiment was done in triplicate, repeated three separate times.

The subject of another test is HOSE and HOSE/IRIS cells. Nature of the test: Survival of HOSE versus HOSE/IRIS cells. The following applies: 10 μM inhibitor, 24 hours. The procedure:
To test that, HOSE or HOSE/IRIS cells were incubated for 24 hours with 10 μM of ErbB2 (CP-724714), EGFR (Erlotinib), TrkB (K252a), JNK (SP600125), p38 (SB203580), ERK (PD98059) and PI3′K/AKT (LY294002) inhibitors. […] Taken together, BRCA1-IRIS overexpression activates AKT and ERK, thereby inactivating FOXO3a and promoting Cyclin D1, survivin, Bcl-2 and NF-κB expression and suppressing p27 expression (FIG. 15).
HOSE cells overexpressing IRIS show a higher degree of resistance to cisplatin than HOSE cells (compare blue to black line in FIG. 30).
Cell viability measurement. Cell viability under different experimental conditions was determined using the MTS assay […]. Briefly, SKOV3, OVACAR3, HOSE and HOSE/IRIS cells (2.5×10^4 cells per well) were seeded in 96 well plates and incubated overnight at 37° C. in 10% humidified CO2 atmosphere in varying concentrations of IRIS peptide, or inhibitors of ErbB2 (CP-724714), EGFR (Erlotinib), TrkB (K252a), JNK (SP600125), p38 (SB203580), ERK (PD98059) and PI3′K/AKT (LY294002) inhibitors for 24 hours at 37° C. Cell Titer 96® Aqueous (Promega, Madison, Wis., USA) was used to measure viability following manufactures instructions. Cell viability (%) was expressed as a ratio to control cells×100. Growth inhibition was also determined by manually counting cells in five different microscopic fields. Change in cell numbers (fold) was expressed as a ratio to control cells×100. All experiments were done in at least triplicates, three different times. * is p≦0.05, ** is p≦0.001 and *** is p≦0.0001.

Another test concerns AKT, ERK, MDM2 and Skp2. Description: Signalling proteins in SKOV3 and OVCAR3 cells (Western). An excerpt: Finally, to further dissect the IRIS-induced cisplatin resistance pathway, PI3′K/AKT (using […]) and ERK (using PD98059) were inactivated and compared to IRIS peptide in two aggressive ovarian cancer cell lines. […] Phosphorylation of cytoplasmic or nuclear FOXO3a by p-AKT and/or p-ERK promotes MDM2 binding and priming ubiquitylation, which is then followed by Skp2 branching ubiquitylation and FOXO3a degradation (Huang and Tindall, 2011). FOXO was less phosphorylated in LY, PD as well as IRIS-silenced/inactivated SKOV3 or OVCAR3 cells (FIG. 34). […] Consistently, in BRCA1-IRIS silenced/inactivated cells accumulation of unphosphorylated/stabilized FOXO3a was detected. In contrast, FOXO3a was still decreased to different degrees in LY or PD treated cells (FIG. 34).

A further test deals with BRCA1-IRIS. Nature of the test: BRCA1-IRIS expression in breast cells (Western). The following applies: MDA-MB-231 and MDA-MB-468; 5 μM IRIS peptide, 10 μM LY294002 or 10 μM PD98059 24 hours; siRNA 72 hours. The procedure:
HME and HME/IRIS cells were treated with 10, 20 and 50 μM of paclitaxel for 24 hours. Compared to HME/IRIS cells, untreated HME cells express very low level of BRCA1-IRIS (FIG. 68, left). […] Both EGF and NRG1, which were secreted at higher levels from untreated HME/IRIS cells, remained high after paclitaxel (until ˜50 μM, FIG. 68, left), whereas in HME cells, both were induced by low paclitaxel treatment (FIG. 68, left). Consistently, in HME/IRIS cells EGFR was phosphorylated on Y1173 (activated by EGF when EGFR is in complex with ErbB2) and ErbB2 on Y1248 (activated by NRG1 when ErbB2 is in complex with ErbB3) remained the same after paclitaxel treatment (until ˜50 μM, FIG. 68, left). Phosphorylated EGFR-Y1173 and ErbB2-Y1248 was only observed in paclitaxel treated HME cells, especially at low concentration (FIG. 68, left).
Survived/paclitaxel-resistant cells were then propagated in the absence of paclitaxel and analyzed. Again, the intrinsically high level of BRCA1-IRIS was not affected by paclitaxel in HME/IRIS cells (FIG. 69, left). […] The expressions of EGFR, ErbB2 and ErbB3 were high in HME/IRIS and HME cells (FIG. 69, left). Despite an intrinsic increase in HME/IRIS and paclitaxel-acquired increase in HME cells in AKT activation, FOXO inactivation/degradation and thus activation increase in CyclinD1, survivin, Bcl-2, Bcl-xL and NF-κB was observed (FIG. 69, right).
To test that hypothesis, an intron 11 peptide (right in FIG. 26) fused to a cell/nucleus penetrating signal at its N-terminus (left in FIG. 26) was synthesized (hereafter IRIS peptide). First, to assess the effect of this IRIS peptide, equal numbers of HME, HME/IRIS, MDA-MB-231, MDA-MB-468 and BT549 cells were exposed to increasing concentrations of scrambled or IRIS peptide for 48 hours. […] It is possible that preventing BRCA1-IRIS-X complex formation destabilizes BRCA1-IRIS and perhaps leads to its degradation.
To investigate whether inactivating BRCA1-IRIS could sensitize TNBC to paclitaxel-induced cell death, HME cells were exposed to 0.5 μM, while HME/IRIS, MDA-MB-231, MDA-MB-468 and BT549 cells were exposed to 5 μM of IRIS peptide alone or with 5, 10 or 20 μM of paclitaxel for 24 hours. […] Again, IRIS peptide alone at these concentrations led to 50% reduction in survival of all cell lines. […] Indeed, in the presence of IRIS peptide >60%, >70% and >90% reduction in the survival of all cell lines in the presence of 5, 10 and 20 μM of paclitaxel, respectively (FIG. 84).
To relate the effect of IRIS peptide on cell survival to the effect of BRCA1-IRIS on AKT and ERK survival pathways, MDA-MB-231 and MDA-MB-468 were treated with vehicle, 5 μM of IRIS peptide, 10 μM LY294002, 10 μM PD98059 for 24 hours or were transfected with BRCA1-IRIS siRNA for 72 hours.

Test [1] has as its system AKT, p-AKT, p-FOXO and FOXO3a. Nature of the test: Signalling proteins in MDA-MB-231 and MDA-MB-468 cells (Western). The following applies: 5 μM IRIS peptide, 10 μM LY294002 or 10 μM PD98059, 24 hours. An excerpt:
This was completely in line with decreased MDM2 and Skp2 (the ubiquitin ligases responsible for p-FOXO degradation) expression in BRCA1-IRIS silenced and BRCA1-IRIS and AKT inactivated cells (FIG. 87).

As for `COCC(=O)NC/C=C/c1ccc2ncnc(Nc3ccc(Oc4ccc(C)nc4)c(C)c3)c2c1` [CP-724714], the “effect on survival of HME versus HME/IRIS cells” value with HME and HME/IRIS cells is “specifically reduced survival in HME/IRIS and not HME cells”. The “effect on survival of HOSE versus HOSE/IRIS cells” value in the test on HOSE and HOSE/IRIS cells is recorded as “significantly decreased survival of HOSE/IRIS cells only”.
For `C#Cc1cccc(Nc2ncnc3cc(OCCOC)c(OCCOC)cc23)c1` [Erlotinib], the “effect on survival of HME versus HME/IRIS cells” value with HME and HME/IRIS cells was “reduced survival of both cell lines”. For the same compound, the “effect on survival of HOSE versus HOSE/IRIS cells” value with HOSE and HOSE/IRIS cells was “equally decreased survival of HOSE and HOSE/IRIS cells”.
Consider `COC(=O)[C@@]1(O)C[C@H]2O[C@]1(C)n1c3ccccc3c3c4c(c5c6ccccc6n2c5c31)C(=O)NC4` [K252a], for which the “effect on survival of HOSE versus HOSE/IRIS cells” value in the test with HOSE and HOSE/IRIS cells is recorded as “significantly decreased survival of HOSE/IRIS cells only”.
`COc1cccc(-c2cc(=O)c3ccccc3o2)c1N` [PD98059]: in the test with HME and HME/IRIS cells, the “effect on survival of HME versus HME/IRIS cells” value was “specifically reduced survival in HME/IRIS and not HME cells”. In the test with AKT, ERK, MDM2 and Skp2, the “AKT and ERK expression and activation” value is “significantly inactivated their cognate protein”; the “MDM2 and Skp2 expression” value was “reduced Skp2 and not MDM2 expression”. The BRCA1-IRIS expression result with BRCA1-IRIS was “significantly reduced BRCA1-IRIS expression in MDA-MB-231 and to a lesser degree in MDA-MB-468”. Also, the “p-FOXO and FOXO3a levels” value in test [1] is on record as “no effect”. Also, the “effect on survival of HOSE versus HOSE/IRIS cells” value in the test on HOSE and HOSE/IRIS cells is “significantly decreased survival of HOSE/IRIS cells only”.
For `C[S+]([O-])c1ccc(-c2nc(-c3ccncc3)c(-c3ccc(F)cc3)[nH]2)cc1` (stereo not shown) [SB203580], in the test on HME and HME/IRIS cells, the “effect on survival of HME versus HME/IRIS cells” value was “no effect on either cell line”. Besides, in the test on HOSE and HOSE/IRIS cells, the “effect on survival of HOSE versus HOSE/IRIS cells” value was “equally decreased survival of HOSE and HOSE/IRIS cells”.
